Assay results as given in patent US20140256660A1, “ANTIBIOTIC CONJUGATES LINKED WITH STEROID DRUGS” (Allergan, Inc., priority 2013, published 2014).

Tested on: human recombinant carboxylesterases
Assay: In vitro metabolic stability (rate of metabolite formation) in human recombinant carboxylesterases
Format: in vitro ADME
Settings: human recombinant carboxylesterases 0.1 mg/mL, 1 μM test compound, pH 6.0, 37° C.
Description: Dutch Belted rabbits were euthanized with an overdose of sodium pentobarbital. The corneas were collected and homogenized in ice-cold potassium chloride solution (pH=7.4). The homogenate was centrifuged at 755×g for 30 min at 4° C. and aliquots of the supernatant were stored at or below −70° C. until metabolism experiments were conducted. Prior to storing the homogenates an aliquot was removed for determination of protein concentrations by calculating the 260 nm absorbance using a spectrophotometer. Human recombinant carboxylesterases were purchased from a commercial vendor (BD Gentest™, Bedford, Mass.)
All metabolic stability experiments were performed in triplicate in 96-well plate format. The final incubation mixture contained 1 μM test compound, 0.3 mg/mL corneal protein homogenate or 0.1 mg/mL human recombinant carboxylesterase mixture in a final volume of 0.5 mL 0.1 M potassium phosphate buffer (pH=6.0). The final percentage of solvent in the incubation was less than 1.0% to prevent inhibition of enzymatic activity. Following a pre-incubation at 37° C., test article (i.e. ester linked hybrids) was added to initiate the reaction. At designated time points (typically less than 60 minutes to capture the linear range of metabolite formation), 0.05 mL aliquots were removed from the incubation mixtures using a clean pipet tip and immediately placed in organic solvent to stop any esterase activity.
Hydrolysis of the metabolites was confirmed to be due to esterase activity and not chemical lability. The samples were analyzed by liquid chromatography with mass spectrometry (LC-MS/MS) detection to determine the metabolite concentrations resulting from the metabolism of ester linked hybrids. Internal standards were used to compensate for variability from sample processing, chromatographic elution, mass spectrometer response and ion suppression by matrix components.

SMILES | Rate of formation Metabolite 2 (Gatifloxacin) (metabolite Gatifloxacin) [nM/min/mg] | Rate of formation Metabolite 1 (Dexamethasone) [nM/min/mg] | Rate of formation Metabolite 1 (Prednisolone) (metabolite Prednisolone) [nM/min/mg] | other results
COc1c(N2CCN(C(=O)OCOC(=O)CCC(=O)OCC(=O)[C@@]3(O)[C@@H](C)CC4C5CCC6=CC(=O)C=C[C@]6(C)[C@@]5(F)[C@@H](O)C[C@@]43C)C(C)C2)c(F)cc2c(=O)c(C(=O)O)cn(C3CC3)c12 (relative stereo) [Compound 2, rel-1-cyclopropyl-6-fluoro-7-[4-({[(4-{2-[(9R,10S,11S,13S,16S,17R)-9-fluoro-11,17-dihydroxy-10,13,16-trimethyl-3-oxo-6,7,8,9,10,11,12,13,14,15,16,17-dodecahydro-3H-cyclopenta[a]phenanthren-17-yl]-2-oxoethoxy}-4-oxobutanoyl)oxy]methoxy}carbonyl)-3-methylpiperazin-1-yl]-8-methoxy-4-oxo-1,4-dihydroquinoline-3-carboxylic acid] | 112 ± 4 | – | – | Rate of formation Metabolite 1 (Betamethasone) (metabolite Betamethasone): 109 ± 2 nM/min/mg
COc1c(N2CCN(C(=O)OCOC(=O)CCC(=O)OCC(=O)[C@@]3(O)[C@H](C)CC4C5CCC6=CC(=O)C=C[C@]6(C)[C@@]5(F)[C@@H](O)C[C@@]43C)C(C)C2)c(F)cc2c(=O)c(C(=O)O)cn(C3CC3)c12 (relative stereo) [Compound 11, rel-1-cyclopropyl-6-fluoro-7-[4-({[(4-{2-[(9R,10S,11S,13S,16R,17R)-9-fluoro-11,17-dihydroxy-10,13,16-trimethyl-3-oxo-6,7,8,9,10,11,12,13,14,15,16,17-dodecahydro-3H-cyclopenta[a]phenanthren-17-yl]-2-oxoethoxy}-4-oxobutanoyl)oxy]methoxy}carbonyl)-3-methylpiperazin-1-yl]-8-methoxy-4-oxo-1,4-dihydroquinoline-3-carboxylic acid] | 56 ± 2.1 | 44.5 ± 2.62 | – | –
COc1c(N2CCNC(C)C2)c(F)cc2c(=O)c(C(=O)OCCCOC(=O)CCC(=O)OCC(=O)[C@]3(O)[C@@H](C)C[C@@H]4[C@H]5CCC6=CC(=O)C=C[C@@]6(C)[C@]5(F)[C@H](O)C[C@]43C)cn(C3CC3)c12 (relative stereo) [Compound 18, 3-({[1-cyclopropyl-6-fluoro-8-methoxy-7-(3-methylpiperazin-1-yl)-4-oxo-1,4-dihydroquinolin-3-yl]carbonyl}oxy)propyl 2-[(8R,9S,10R,11R,13R,14R,16S,17S)-9-fluoro-11,17-dihydroxy-10,13,16-trimethyl-3-oxo-6,7,8,9,10,11,12,13,14,15,16,17-dodecahydro-3H-cyclopenta[a]phenanthren-17-yl]-2-oxoethyl rel-butanedioate] | 2.44 ± 0.87 | 59.7 ± 5.15 | – | –
COc1c(N2CCN(C(=O)OCOC(=O)CCC(=O)N[C@@H](C(=O)OCC(=O)[C@]3(O)CCC4C5CCC6=CC(=O)C=C[C@@]6(C)C5[C@H](O)C[C@]43C)C(C)C)C(C)C2)c(F)cc2c(=O)c(C(=O)O)cn(C3CC3)c12 (relative stereo) [Compound 29, rel-1-cyclopropyl-7-{4-[(10R)-14-[(10S,11R,13R,17S)-11,17-dihydroxy-10,13-dimethyl-3-oxo-6,7,8,9,10,11,12,13,14,15,16,17-dodecahydro-3H-cyclopenta[a]phenanthren-17-yl]-5,8,11,14-tetraoxo-10-(propan-2-yl)-2,4,12-trioxa-9-azatetradecan-1-oyl]-3-methylpiperazin-1-yl}-6-fluoro-8-methoxy-4-oxo-1,4-dihydroquinoline-3-carboxylic acid] | 36.5 ± 1.1 | – | 17.3 ± 0.1 | –
COc1c(N2CCNC(C)C2)c(F)cc2c(=O)c(C(=O)OCCCC(=O)OCC(=O)[C@]3(O)CC[C@@H]4[C@H]5CCC6=CC(=O)C=C[C@@]6(C)C5[C@H](O)C[C@]43C)cn(C3CC3)c12 (relative stereo) [Compound 41, 4-{2-[(8R,10S,11R,13R,14R,17S)-11,17-dihydroxy-10,13-dimethyl-3-oxo-6,7,8,9,10,11,12,13,14,15,16,17-dodecahydro-3H-cyclopenta[a]phenanthren-17-yl]-2-oxoethoxy}-4-oxobutyl rel-1-cyclopropyl-6-fluoro-8-methoxy-7-(3-methylpiperazin-1-yl)-4-oxo-1,4-dihydroquinoline-3-carboxylate] | – | – | – | Rate of formation Metabolite 1 (Gatifloxacin) (metabolite Gatifloxacin): 7.60 ± 2.1 nM/min/mg; Rate of formation Metabolite 2 (Prednisolone) (metabolite Prednisolone): 74.6 ± 4.1 nM/min/mg
COc1c(N2CCNC(C)C2)c(F)cc2c(=O)c(C(=O)OCOC(=O)OCC(=O)[C@]3(O)CC[C@@H]4[C@H]5CCC6=CC(=O)C=C[C@@]6(C)C5[C@H](O)C[C@]43C)cn(C3CC3)c12 (relative stereo) [Compound 42, [({2-[(8R,10S,11R,13R,14R,17S)-11,17-dihydroxy-10,13-dimethyl-3-oxo-6,7,8,9,10,11,12,13,14,15,16,17-dodecahydro-3H-cyclopenta[a]phenanthren-17-yl]-2-oxoethoxy}carbonyl)oxy]methyl rel-1-cyclopropyl-6-fluoro-8-methoxy-7-(3-methylpiperazin-1-yl)-4-oxo-1,4-dihydroquinoline-3-carboxylate] | 668 ± 102 | – | 633 ± 85 | –
COc1c(N2CCNC(C)C2)c(F)cc2c(=O)c(C(=O)OC(C)OC(=O)OCC(=O)[C@]3(O)CC[C@@H]4[C@H]5CCC6=CC(=O)C=C[C@@]6(C)C5[C@H](O)C[C@]43C)cn(C3CC3)c12 (relative stereo) [Compound 43, 1-[({2-[(8R,10S,11R,13R,14R,17S)-11,17-dihydroxy-10,13-dimethyl-3-oxo-6,7,8,9,10,11,12,13,14,15,16,17-dodecahydro-3H-cyclopenta[a]phenanthren-17-yl]-2-oxoethoxy}carbonyl)oxy]ethyl rel-1-cyclopropyl-6-fluoro-8-methoxy-7-(3-methylpiperazin-1-yl)-4-oxo-1,4-dihydroquinoline-3-carboxylate] | 419 ± 8 | – | 298 ± 13 | –
COc1c(N2CCNC(C)C2)c(F)cc2c(=O)c(C(=O)OCOC(=O)CCC(=O)OCC(=O)[C@]3(O)CC[C@@H]4[C@H]5CCC6=CC(=O)C=C[C@@]6(C)C5[C@H](O)C[C@]43C)cn(C3CC3)c12 (relative stereo) [Compound 44, ({[1-cyclopropyl-6-fluoro-8-methoxy-7-(3-methylpiperazin-1-yl)-4-oxo-1,4-dihydroquinolin-3-yl]carbonyl}oxy)methyl 2-[(8R,10S,11R,13R,14R,17S)-11,17-dihydroxy-10,13-dimethyl-3-oxo-6,7,8,9,10,11,12,13,14,15,16,17-dodecahydro-3H-cyclopenta[a]phenanthren-17-yl]-2-oxoethyl rel-butanedioate] | 760 ± 110 | – | 365 ± 32 | –
COc1c(N2C[C@H]3CCCN[C@H]3C2)c(F)cc2c(=O)c(C(=O)OCCCOC(=O)c3ccc(C(=O)OCC(=O)[C@@]4(O)[C@H](C)C[C@H]5[C@@H]6CCC7=CC(=O)C=C[C@]7(C)[C@@]6(F)[C@@H](O)C[C@@]54C)cc3)cn(C3CC3)c12 (relative stereo) [Compound 54, 3-[({1-cyclopropyl-6-fluoro-8-methoxy-7-[(4aR,7aR)-octahydro-6H-pyrrolo[3,4-b]pyridin-6-yl]-4-oxo-1,4-dihydroquinolin-3-yl}carbonyl)oxy]propyl 2-[(8S,9R,10S,11S,13S,14S,16R,17R)-9-fluoro-11,17-dihydroxy-10,13,16-trimethyl-3-oxo-6,7,8,9,10,11,12,13,14,15,16,17-dodecahydro-3H-cyclopenta[a]phenanthren-17-yl]-2-oxoethyl rel-benzene-1,4-dicarboxylate] | – | 67.8 ± 1.78 | – | Rate of formation Metabolite 2 (Moxifloxacin): 0.717 ± 0.625 nM/min/mg
COc1c(N2CC3CCCN(C(=O)OCOC(=O)CCC(=O)OCC(=O)[C@]4(O)CC[C@@H]5[C@H]6CCC7=CC(=O)C=C[C@@]7(C)[C@@H]6[C@H](O)C[C@]54C)C3C2)c(F)cc2c(=O)c(C(=O)O)cn(C3CC3)c12 (relative stereo) [Compound 59, rel-1-cyclopropyl-7-[1-({[(4-{2-[(8R,9R,10S,11R,13R,14R,17S)-11,17-dihydroxy-10,13-dimethyl-3-oxo-6,7,8,9,10,11,12,13,14,15,16,17-dodecahydro-3H-cyclopenta[a]phenanthren-17-yl]-2-oxoethoxy}-4-oxobutanoyl)oxy]methoxy}carbonyl)octahydro-6H-pyrrolo[3,4-b]pyridin-6-yl]-6-fluoro-8-methoxy-4-oxo-1,4-dihydroquinoline-3-carboxylic acid] | – | – | 416 ± 192 | Rate of formation Metabolite 2 (Moxifloxacin): 350 ± 180 nM/min/mg
